Among the data in patent KR20170082372A, “Sirt6의 활성 조절용 조성물” (한국화학연구원, priority 2016, dated 2017) are EC50 and activity values, retold here.

One may read the EC50 as the midpoint of the concentration-response curve.

In this assay the target is T1, recombinant Sirt6 enzyme (Homo sapiens, UniProt Q8N6T7).
T1 construct: purchased Cyclex CY-1156
In words: CycLex Sirt6 deacetylase fluorometric assay (cat. CY-1156). It is filed as biochemical. The conditions noted are these: 1 h, room temperature; for EC50: increase of Sirt6 deacetylase activity; for activity at 5 µM (stock): screening at 5uM, no test sample control = 100.

T1 sequence (Q8N6T7 whole entry): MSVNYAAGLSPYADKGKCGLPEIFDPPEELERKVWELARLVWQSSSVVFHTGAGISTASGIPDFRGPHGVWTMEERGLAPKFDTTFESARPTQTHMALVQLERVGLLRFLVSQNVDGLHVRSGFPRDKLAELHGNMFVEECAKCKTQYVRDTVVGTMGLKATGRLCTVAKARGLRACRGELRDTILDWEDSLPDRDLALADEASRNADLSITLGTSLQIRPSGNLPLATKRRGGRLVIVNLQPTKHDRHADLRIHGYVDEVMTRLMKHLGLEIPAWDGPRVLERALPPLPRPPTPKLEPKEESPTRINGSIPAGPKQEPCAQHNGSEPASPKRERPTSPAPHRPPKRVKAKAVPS

With `NNc1nc2c(-c3cccc(C(F)(F)F)c3)nnn2c2ccccc12` [화학식 1, 5-hydrazinyl-3-(3-(trifluoromethyl)phenyl)-[1,2,3]triazolo[1,5-a]quinazoline], the EC50 stood at 5 µM and the activity at 5 µM (stock) was not below 200%.
With `COc1ccc(-c2nnn3c2nc(NC(C)c2ccccc2)c2ccccc23)cc1` (stereo not shown) [화학식 2, 3-(4-methoxyphenyl)-N-(1-phenylethyl)-[1,2,3]triazolo[1,5-a]quinazolin-5-amine], the half-maximal effective concentration (EC50) is 2.8 µM and the activity at 5 µM (stock) is not below 200%.
